This note sets out measurements from the supplement of paper PMC4862054.

The structures appear in SMILES notation.

Details in all cases: incubation time: 72 h
The test system of test [1] is HDQ-P1. Put plainly: normalised response (% of control), CellTox Green; higher = less cell death (100 = DMSO, 0 = benzethonium chloride kill control). The essentials: (§1)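 Breast cancer cell lines (20 µl suspension) were seeded into 384-well plates holding compound at 5 concentrations in 10-fold steps over a compound-specific 10,000-fold range, then incubated 72 h. CellTox Green fluorescence (485/520 nm) was read first, then CellTiter-Glo luminescence after 10 min at room temperature. Each plate was normalised to 0.1 % DMSO (100) and a positive kill control (0). Each value is the normalised signal at a single concentration of the series.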

For test [2], the system named is CAL-51. Described as above. The procedure, abridged: as §1
The test system of test [3] is MDA-MB-436. Described as above. The essentials:
as §1

The subject of test [4] is HCC1143. Described as above. The procedure, abridged: as §1
For test [5], the system named is DU-4475. The description is as above. The procedure, abridged: as §1
The test system of test [6] is CAL-120. Described as above. The procedure, abridged:
as §1

Test [7] has as its system HCC1599. The test is described as above. The procedure, abridged: as §1
Test [8] concerns MDA-MB-231. Described as above. The essentials: as §1
In test [9] the test system is BT-549. The description is as above. The essentials: as §1
The test system of test [10] is MCF-10A. The test is described as above. The essentials: as §1
Test [11] has as its system Hs578T. The test is described as above. The essentials: as §1
In test [12] the test system is BT-474. Described as above. The essentials: as §1
In test [13] the test system is HCC1937. Described as above. The essentials: as §1
Test [14] concerns CAL-148. The description is as above. The procedure, abridged: as §1
In test [15] the test system is HDQ-P1. Put plainly: drug sensitivity score (DSS), CellTox Green (DSS (AUC-based score)); higher = stronger drug effect (viability inhibition or cytotoxicity); extreme values may be limits of the assay. The procedure, abridged:
(§2)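 Breast cancer cell lines (20 µl suspension) were seeded into 384-well plates holding compound at 5 concentrations in 10-fold steps over a compound-specific 10,000-fold range, then incubated 72 h. CellTox Green fluorescence (485/520 nm) was read first, then CellTiter-Glo luminescence after 10 min at room temperature. Each plate was normalised to 0.1 % DMSO and a positive kill control. The drug sensitivity score was calculated from the area under the fitted dose-response curve.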

Test [16] deals with MFM-223. Described as above. The essentials: as §2
The test system of test [17] is MDA-MB-436. The test is described as above. The procedure, abridged: as §2
Test [18] concerns HCC1143. Described as above. The essentials:
as §2

The subject of test [19] is DU-4475. The description is as above. The essentials: as §2
Test [20] relates to CAL-120. The test is described as above. The procedure, abridged: as §2
The test system of test [21] is HCC1599. Described as above. The essentials: as §2
Test [22] concerns MDA-MB-231. Described as above. The essentials:
as §2

Test [23] has as its system BT-549. The test is described as above. The essentials: as §2
Test [24] deals with MCF-10A. The test is described as above. The essentials:
as §2

Test [25] has as its system Hs578T. The test is described as above. The procedure, abridged: as §2
Test [26] concerns HCC1937. Described as above. The procedure, abridged: as §2
For test [27], the system named is MDA-MB-453. The description is as above. The procedure, abridged:
as §2

Test [28] deals with CAL-148. Described as above. The procedure, abridged: as §2

For `NC1(c2ccc(-c3nc4ccn5c(=O)[nH]nc5c4cc3-c3ccccc3)cc2)CCC1` [MK-2206] (1000 nM), the normalised response in test [1] amounted to 109%; in test [2] it was 98.1%; in test [3] it was 112%; in test [4], 131%; in test [5] it was 109%; in test [6], 97.8%. Besides, the normalised response in test [7] was 117%; in test [8], 106%; in test [9], 122%; in test [10] it was 104%; in [11], 82.1%; in [12], 99.2%. Besides, the normalised response was found to be 108% in [13] and 11.1% in test [14].
For the compound `O=C(c1cc(Cc2n[nH]c(=O)c3ccccc23)ccc1F)N1CCN(C(=O)C2CC2)CC1` [Olaparib] (10000 nM), the normalised response in test [2] is 44.8%; in [3], 44%; in [4] it was 94.2%; in test [5], 98.5%; in test [6], 94.8%; in test [7] it was 99.2%. The normalised response in test [8] came out at 35.9%; in test [9], 102%; in [10] it was 94.8%; in test [11] it was 96.5%; in test [12], 96.4%; in [13], 99.8%. For the same compound, in [14], the normalised response amounted to 75.3%.
In the case of `COc1cc2c(N3CCN(C(=O)Nc4ccc(OC(C)C)cc4)CC3)ncnc2cc1OCCCN1CCCCC1` [Tandutinib] (1000 nM), the normalised response in test [1] came out at 97.1%; in test [2] it was 98.5%; in [3] it was 86.9%; in test [4] it was 114%; in [5], 98.6%; in test [6], 96.2%. Besides, the normalised response stood at 100% in test [7]; 99.1% in test [8]; 108% in test [9]; 93.5% in [10]; 122% in [11]; 100% in test [12]. The normalised response in [13] worked out at 93.2%; in test [14] it was 93.5%.
On to `C[C@@H](C(=O)O)c1ccc(-c2ccccc2)c(F)c1` [Tarenflurbil] (10000 nM), for which the normalised response was found to be 110% in test [1]; 113% in [2]; 90% in test [3]; 121% in test [4]; 101% in test [5]; 91.1% in [6]. Moreover, the normalised response in [7] was found to be 102%; in test [8], 99.9%; in test [9], 101%; in [12], 88.4%; in [13], 109%; in test [14], 101%.
Take `CCc1c(C(=O)C(N)=O)c2c(OCC(=O)O)cccc2n1Cc1ccccc1` [Varespladib]: the drug sensitivity score in [15], in [16], in test [17], in [18], in test [19] and in [20] was 0 in each case. For the same compound, the drug sensitivity score in [21], in test [22], in test [23], in test [24], in test [25] and in [26] was 0 throughout. Besides, the drug sensitivity score in test [27] and in test [28] was 0 throughout.
